Laboratory results reported in PubChem BioAssay (NCI).
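Exposure lasted 48 hours, with cells grown in 96-well plates and compounds tested at five concentrations. GI50 = concentration required for 50% inhibition of growth. TGI marks complete inhibition of growth.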

Tests used:
Experiment in all cases: NCI tumour cell line growth inhibition, 48 h
UACC-257 melanoma = test system: UACC-257 melanoma
RXF 393 renal = test system: RXF 393 renal
ACHN renal = test system: ACHN renal
SW-620 colon = test system: SW-620 colon
MDA-MB-435 = test system: MDA-MB-435
SK-OV-3 ovarian = test system: SK-OV-3 ovarian
SF-268 CNS = test system: SF-268 CNS
HCT-116 colon = test system: HCT-116 colon
RPMI-8226 leukemia = test system: RPMI-8226 leukemia
BT-549 breast = test system: BT-549 breast
SN12C renal = test system: SN12C renal
NCI-H23 lung = test system: NCI-H23 lung
LOX IMVI melanoma = test system: LOX IMVI melanoma
786-0 renal = test system: 786-0 renal
A498 renal = test system: A498 renal
OVCAR-8 ovarian = test system: OVCAR-8 ovarian
SNB-19 CNS = test system: SNB-19 CNS
HCT-15 colon = test system: HCT-15 colon
M14 melanoma = test system: M14 melanoma
OVCAR-5 ovarian = test system: OVCAR-5 ovarian
CCRF-CEM leukemia = test system: CCRF-CEM leukemia
SNB-75 CNS = test system: SNB-75 CNS
U251 CNS = test system: U251 CNS
HT29 colon = test system: HT29 colon
NCI-H522 lung = test system: NCI-H522 lung
A549 NSCLC = test system: A549 NSCLC
SK-MEL-5 melanoma = test system: SK-MEL-5 melanoma
OVCAR-4 ovarian = test system: OVCAR-4 ovarian
MALME-3M melanoma = test system: MALME-3M melanoma
MDA-MB-231 breast = test system: MDA-MB-231 breast
KM12 colon = test system: KM12 colon
SF-295 CNS = test system: SF-295 CNS
HL-60(TB) leukemia = test system: HL-60(TB) leukemia
K-562 leukemia = test system: K-562 leukemia
NCI-H460 lung = test system: NCI-H460 lung
NCI/ADR-RES ovarian = test system: NCI/ADR-RES ovarian
TK-10 renal = test system: TK-10 renal
DU-145 prostate = test system: DU-145 prostate
HOP-92 NSCLC = test system: HOP-92 NSCLC
SF-539 CNS = test system: SF-539 CNS
COLO 205 colon = test system: COLO 205 colon
UACC-62 melanoma = test system: UACC-62 melanoma
SK-MEL-28 melanoma = test system: SK-MEL-28 melanoma
HOP-62 NSCLC = test system: HOP-62 NSCLC
T-47D breast = test system: T-47D breast
SR leukemia = test system: SR leukemia
PC-3 prostate = test system: PC-3 prostate
MOLT-4 leukemia = test system: MOLT-4 leukemia
SK-MEL-2 melanoma = test system: SK-MEL-2 melanoma
CAKI-1 renal = test system: CAKI-1 renal
NCI-H226 lung = test system: NCI-H226 lung
OVCAR-3 ovarian = test system: OVCAR-3 ovarian
HCC-2998 colon = test system: HCC-2998 colon
HS 578T breast = test system: HS 578T breast
MCF7 breast = test system: MCF7 breast
IGROV1 ovarian = test system: IGROV1 ovarian
UO-31 renal = test system: UO-31 renal

O=C1OC(c2ccc(O)cc2)(c2ccc(O)cc2)c2cccc3cccc1c23
GI50 (UACC-257 melanoma): 13.8 µM | TGI (UACC-257 melanoma): 27.8 µM | GI50 (RXF 393 renal): 14.6 µM | TGI (RXF 393 renal): 29.9 µM | GI50 (ACHN renal): 14.3 µM | TGI (ACHN renal): 27.9 µM | GI50 (SW-620 colon): 15.5 µM | TGI (SW-620 colon): 33.3 µM | GI50 (MDA-MB-435): 9.04 µM | TGI (MDA-MB-435): 22.4 µM | GI50 (SK-OV-3 ovarian): 18.8 µM | TGI (SK-OV-3 ovarian): 33.1 µM | GI50 (SF-268 CNS): 14.2 µM | TGI (SF-268 CNS): 32.2 µM | GI50 (HCT-116 colon): 15.6 µM | TGI (HCT-116 colon): 31.5 µM | GI50 (RPMI-8226 leukemia): 18.6 µM | TGI (RPMI-8226 leukemia): 50.5 µM | GI50 (BT-549 breast): 1.26 µM | TGI (BT-549 breast): 4.01 µM | GI50 (SN12C renal): 12.7 µM | TGI (SN12C renal): 38.4 µM | GI50 (NCI-H23 lung): 17.8 µM | TGI (NCI-H23 lung): 37.2 µM | GI50 (LOX IMVI melanoma): 15.2 µM | TGI (LOX IMVI melanoma): 34.7 µM | GI50 (786-0 renal): 20.2 µM | TGI (786-0 renal): 41.8 µM | GI50 (A498 renal): 0.488 µM | TGI (A498 renal): 15.3 µM | GI50 (OVCAR-8 ovarian): 16.7 µM | TGI (OVCAR-8 ovarian): 44.1 µM | GI50 (SNB-19 CNS): 16.8 µM | TGI (SNB-19 CNS): 34.5 µM | GI50 (HCT-15 colon): 13.6 µM | TGI (HCT-15 colon): 34.3 µM | GI50 (M14 melanoma): 16.4 µM | TGI (M14 melanoma): 33 µM | GI50 (OVCAR-5 ovarian): 16.5 µM | TGI (OVCAR-5 ovarian): 31.7 µM | GI50 (CCRF-CEM leukemia): 19.8 µM | TGI (CCRF-CEM leukemia): 48.4 µM | GI50 (SNB-75 CNS): 9.97 µM | TGI (SNB-75 CNS): 27.1 µM | GI50 (U251 CNS): 15.6 µM | TGI (U251 CNS): 30.3 µM | GI50 (HT29 colon): 19.4 µM | TGI (HT29 colon): 39.6 µM | GI50 (NCI-H522 lung): 14 µM | TGI (NCI-H522 lung): 33.5 µM | GI50 (A549 NSCLC): 14.4 µM | TGI (A549 NSCLC): 36.2 µM | GI50 (SK-MEL-5 melanoma): 16.1 µM | TGI (SK-MEL-5 melanoma): 31.3 µM | GI50 (OVCAR-4 ovarian): 0.18 µM | TGI (OVCAR-4 ovarian): 17.4 µM | GI50 (MALME-3M melanoma): 20 µM | TGI (MALME-3M melanoma): 43.4 µM | GI50 (MDA-MB-231 breast): 14.2 µM | TGI (MDA-MB-231 breast): 35.5 µM | GI50 (KM12 colon): 10.5 µM | TGI (KM12 colon): 25.2 µM | GI50 (SF-295 CNS): 15 µM | TGI (SF-295 CNS): 31.8 µM | GI50 (HL-60(TB) leukemia): 18 µM | TGI (HL-60(TB) leukemia): 45.5 µM | GI50 (K-562 leukemia): 15.7 µM | TGI (K-562 leukemia): 61.3 µM | GI50 (NCI-H460 lung): 17.9 µM | TGI (NCI-H460 lung): 39.6 µM | GI50 (NCI/ADR-RES ovarian): 21.9 µM | TGI (NCI/ADR-RES ovarian): 68.7 µM | GI50 (TK-10 renal): 18 µM | TGI (TK-10 renal): 34 µM | GI50 (DU-145 prostate): 17.2 µM | TGI (DU-145 prostate): 31.6 µM | GI50 (HOP-92 NSCLC): 12.2 µM | TGI (HOP-92 NSCLC): 26.8 µM | GI50 (SF-539 CNS): 15.2 µM | TGI (SF-539 CNS): 29 µM | GI50 (COLO 205 colon): 0.737 µM | TGI (COLO 205 colon): 18.4 µM | GI50 (UACC-62 melanoma): 11.3 µM | TGI (UACC-62 melanoma): 25.7 µM | GI50 (SK-MEL-28 melanoma): 14.3 µM | TGI (SK-MEL-28 melanoma): 29.5 µM | GI50 (HOP-62 NSCLC): 17.3 µM | TGI (HOP-62 NSCLC): 38.1 µM | GI50 (T-47D breast): 0.118 µM | TGI (T-47D breast): 12 µM | GI50 (SR leukemia): 10.8 µM | TGI (SR leukemia): 38.3 µM | GI50 (PC-3 prostate): 11.5 µM | TGI (PC-3 prostate): 29 µM | GI50 (MOLT-4 leukemia): 11.7 µM | TGI (MOLT-4 leukemia): 33.8 µM | GI50 (SK-MEL-2 melanoma): 15.6 µM | TGI (SK-MEL-2 melanoma): 31.2 µM | GI50 (CAKI-1 renal): 18.1 µM | TGI (CAKI-1 renal): 44.6 µM | GI50 (NCI-H226 lung): 17.6 µM | TGI (NCI-H226 lung): 44.7 µM | GI50 (OVCAR-3 ovarian): 3.53 µM | TGI (OVCAR-3 ovarian): 19.9 µM | GI50 (HCC-2998 colon): 15.8 µM | TGI (HCC-2998 colon): 32.5 µM | GI50 (HS 578T breast): 0.249 µM | TGI (HS 578T breast): 20.9 µM | GI50 (MCF7 breast): 1.98 µM | TGI (MCF7 breast): 25.9 µM | GI50 (IGROV1 ovarian): 17.6 µM | TGI (IGROV1 ovarian): 42.7 µM | GI50 (UO-31 renal): 12.5 µM | TGI (UO-31 renal): 28.9 µM
